From US5173502A, “Substituted trifluoropropan-1-yl-imidazole alpha 2-receptor anagonists” (Adir et Compagnie, priority 1990, dated 1992) come the findings set out here.

Molecules are shown by their SMILES.

One experiment has as its system α1. Nature of the experiment: In vivo test: return of the eye to a normal position (xylazine-induced exophthalmia) in rats, α1-antagonist potential. Further details: species or system rat. The protocol:
(§1) In vivo α2 -antagonism test
(§2) The α2 -antagonist properties of the compounds of the invention were determined according to a method described by F. Colpaert et al., (DRUG Development Research 7, 125-140, 1986) by measuring the effects produced by those compounds on the loss of the correcting reflex and exophthalmia induced in rats by xylazine, a known agonist of α2-adrenergic receptors in the central nervous system.
(§3) The reestablishment of the righting reflex measures the α2 -antagonist potential of the compounds, whilst the return of the eye to a normal position measures the α1 -antagonist potential.

The next experiment has as its system α2-adrenergic receptors. Kind of experiment: In vivo α2-antagonism test: reestablishment of the righting reflex lost through xylazine in rats. Further details: species or system rat. Conditions: xylazine-induced loss of righting reflex. The protocol:
as §1, §2, §3

Consider `Cl.FC(F)(F)C(Cc1c[nH]cn1)c1ccccc1` (centres unmarked) [Example 2, 4-(2-Phenyl-3,3,3-trifluoropropan-1-yl)-imidazole hydrochloride], for which the “ED50 (α1)” value in the experiment on α1 is listed as “higher than 10 mg/kg”. In the experiment on α2-adrenergic receptors, the “ED50 (α2)” value is listed as 5 mg/kg.
